Test results as given in ChEMBL document CHEMBL3784978, “Stabilization of G-quadruplex DNA and inhibition of Bcl-2 expression by a pyridostatin analog” (Bioorg Med Chem Lett, 2016).
Activity calls are given as the source filed them. No cut-off for these calls is given here.

Experiments:
[1] = Binding affinity to duplex ds20 DNA (unknown origin) assessed as binding constant at 8 uM by Stern-Volmer plot analysis in the presence of KCl and NaCl
[2] = Binding affinity to Bcl2 G-quadraplex DNA (unknown origin) assessed as melting temprature at 5 uM by circular dichroism spectroscopic analysis in the presence of KCl and NaCl
[3] = Ratio of binding affinity to Bcl2 G-quadruplex DNA (unknown origin) to binding affinity to duplex ds26 DNA (unknown origin)
[4] = Binding affinity to Bcl2 G-quadraplex DNA (unknown origin) assessed as melting temprature at 2 uM by circular dichroism spectroscopic analysis in the presence of KCl and NaCl
[5] = tested on: HEp-2; experiment: Antiproliferative activity against human Hep2 cells measured up to 10 uM after 48 hrs by MTT assay; assay type: functional, cell-based
[6] = Binding affinity to Bcl2 G-quadraplex DNA (unknown origin) assessed as binding constant at 8 uM by Stern-Volmer plot analysis in the presence of KCl and NaCl
[7] = tested on: HEp-2; experiment: Binding affinity to Bcl2 G-quadraplex DNA in human Hep2 cells assessed as reduction in Bcl-2 gene levels by real-time PCR method; assay type: cell-based
[8] = Ratio of binding affinity to Bcl2 G-quadruplex DNA (unknown origin) to binding affinity to duplex ds20 DNA (unknown origin)
[9] = species on record: Homo sapiens; experiment: Binding affinity to duplex ds26 DNA (unknown origin) assessed as melting temprature at 12 uM by circular dichroism spectroscopic analysis in the presence of KCl and NaCl
[10] = tested on: HEp-2; experiment: Binding affinity to Bcl2 G-quadraplex DNA in human Hep2 cells assessed as reduction in Bcl-2 expression co-transfected in pRL-TK plasmid vector after 48 hrs by dual-luciferase reporter assay; assay type: cell-based
[11] = Binding affinity to duplex ds26 DNA (unknown origin) assessed as binding constant at 8 uM by Stern-Volmer plot analysis in the presence of KCl and NaCl

Compound: CN(C)CCOc1cc(NC(=O)c2cc(OCCN)cc(C(=O)Nc3cc(OCCN(C)C)c4ccccc4n3)n2)nc2ccccc12
- Ka [1]: 0.28 ×10⁵ L/mol
- Tm [2]: 71 °C
- Ratio [3]: 6.5
- Tm [4]: 56 °C
- Activity [5]: Active
- Ka [6]: 4.29 ×10⁵ L/mol
- Activity [7]: Active
- Ratio [8]: 6.5
- Tm [9]: 68 °C
- Activity [10]: Dose-dependent effect
- Ka [11]: 0.66 ×10⁵ L/mol

Compound: NCCOc1cc(C(=O)Nc2cc(OCCN)c3ccccc3n2)nc(C(=O)Nc2cc(OCCN)c3ccccc3n2)c1
- Ka [1]: 1.36 ×10⁵ L/mol
- Ratio [3]: 4
- Ka [6]: 6.97 ×10⁵ L/mol
- Ratio [8]: 4
- Ka [11]: 1.52 ×10⁵ L/mol
